Source: patent US9145352B2, “Quaternary N-(halomethyl) ammonium salts as therapeutic agents” (UNIVERSIDAD DE CALDAS, priority 2012, dated 2015)
Like-named read-outs stand apart in the source and are kept apart here.

Experiments:
[1] = system: L. major promastigotes; conditions: cited from earlier work
[2] = system: axenic amastigotes of L. (V) panamensis; test: in vitro effectiveness against axenic amastigotes of L. (V) panamensis; assay type: cell-based
Excerpt: Then, a series of compounds analogous to compound 3 (characterized by a tail G being a diarylalkenyl moiety) were synthesized in order to assess their in vitro effectiveness against L. (V) panamensis, a pathogenic species which causes human mucocutaneous leishmaniasis. Other halogenated analogs of choline were also synthesized and included in this in vitro effectiveness study. FIG. 2 illustrates the compounds evaluated for their in vitro effectiveness against axenic amastigotes of L. (V) panamensis.
The table shown in FIG. 7 contains the EC50 values (molar amount of compound that kills 50% of parasites in sample) obtained against axenic amastigotes of L. (V) panamensis. […] N-(HALOMETHYL) AMMONIUM SALTS AS […] AGENTS were compared with the respective non-halogenated (i.e. N,N,N-trimethyl quaternary ammonium salts) and with two compounds commonly used to treat leishmaniasis (meglumine antimoniate and amphotericin B).

[3] = system: Indian visceral disease; conditions: cited from earlier work
[4] = system: amastigotes of L. (V) panamensis that have infected macrophage cells; test: in vitro effectiveness against L. (V) panamensis amastigotes that have infected macrophage cells; assay type: cell-based
Description: Given that Leishmania parasites are known to infect monocyte cells, mostly macrophages and neutrophils, the in vitro effectiveness of some of the compounds was also tested on L. (V) panamensis in the amastigote stage that have been set to infect macrophage cells. FIG. 5 contains the list of compounds evaluated.
On the other hand, the results of the in vitro activity study of some […] N-(HALOMETHYL) AMMONIUM SALTS AS […] AGENTS shown in FIG. 5 against infected macrophage cells with Leishmania panamesis are shown in FIG. 8.

[5] = system: cutaneous leishmaniasis lesion; test: golden hamster model for cutaneous leishmaniasis; assay type: in vivo; conditions: topical application in aqueous buffer (neutral pH) daily for ten days
Description: It was decided then to carry out a preliminary in vivo animal study according to standard practices using the golden hamster model for cutaneous leishmaniasis, using the compounds with the better profile as therapeutic agents against leishmaniasis. For that purpose the in vivo effectiveness of compounds 3b, 13b and 14c were tested FIG. 6.
It was decided then to carry out a small in vivo animal study according to standard practices using the golden hamster model for cutaneous leishmaniasis. For that purpose the in vivo effectiveness of compounds 3b, 13b and 14c were tested. Treatment consisted of a topical application of the compound suspended in an aqueous buffer (neutral pH) daily for ten days.

[6] = system: Chagas disease; conditions: given soon after infection at the onset of the acute phase; cited from earlier work
[7] = system: promastigotes of L. tarentolae; test: in vitro uptake of choline by promastigotes; assay type: cell-based
Excerpt: (§1) Phosphatidyl choline can be synthesized by the parasite following the traditional Kennedy pathway (Zhang and Beverley, 2010), in which choline is converted to phosphatidyl choline via a sequence of steps, each catalyzed by a specific enzyme. The first step involves the phosphorylation of choline with the enzyme choline kinase.

[8] = system: promastigotes of L. tarentolae; test: in vitro production of phosphatidyl choline by parasites; assay type: cell-based
Excerpt: as §1

[9] = system: choline kinase of L. (L) infantum; test: kinetic studies with choline kinase; assay type: biochemical; conditions: lowering its catalytic efficiency
Excerpt: as §1

## CCCCCCCCCCCC[N+](C)(C)C.[Br-] [dodecyltrimethyl ammonium bromide]
[1]
  growth of L. major promastigotes: inhibit the growth

## C[C@@H]1[C@H](O)[C@@H](C)/C=C/C=C/C=C/C=C/C=C/C=C/C=C/[C@H](O[C@@H]2O[C@H](C)[C@@H](O)[C@H](N)[C@@H]2O)C[C@@H]2O[C@](O)(C[C@@H](O)C[C@@H](O)[C@H](O)CC[C@@H](O)C[C@@H](O)CC(=O)O[C@H]1C)C[C@H](O)[C@H]2C(=O)O [amphotericin B]
[2]
  EC50: 0.041 ± 0.001 µM
[3]; dose of 5-10 mg/kg
  effective against the Indian visceral disease: 90%
[3]; total dose of 15 mg/kg body weight
  effective against the Indian visceral disease: 100%
[4]
  EC50 against infected macrophage cells with L. (V) panamensis: 0.05 ± 0.001 µg/mL

## CCCCCCCCCCCCCCCCCC[N+](C)(C)C.[Br-] [octadecyltrimethyl ammonium bromide]
[1]
  growth of L. major promastigotes: inhibit the growth

## C[N+](C)(CCl)CCC=C(c1ccccc1)c1ccccc1 [Compound 13b]
[5]
  cure of animals: cure of the majority of the animals

## meglumine antimoniate
[2]
  EC50: 312 ± 18.6 µM
[4]
  EC50 against infected macrophage cells with L. (V) panamensis: 6.33 ± 0.86 µg/mL

## O=C(Cn1ccnc1[N+](=O)[O-])NCc1ccccc1 [benznidazole]
[6]
  effective in curing the disease: ~100%

## C[N+](C)(CI)CCCCC=C(c1ccccc1)c1ccccc1 [Compound 14a]
[7]
  uptake of choline by promastigotes: interferes with the in vitro uptake of choline
[2]; FIG. 7
  relative effectiveness against axenic amastigotes of L. (V) panamensis: the most effective
[8]
  production of phosphatidyl choline: inhibits the in vitro production of phosphatidyl choline
[9]
  inhibition of choline kinase: able to inhibit this enzyme
